Reference: patent US6949647B2, “Synthesis of pancratistatin” (Arizona Board of Regents, priority 2000, dated 2005)
Converted amounts (≈) assume the structure as drawn. Structures can show the parent of a compound that is named as a salt. Where two headings read alike, the source gives them in different places.

How the values were obtained:
BXPC-3 = test: Human cancer cell line growth inhibition, pancreas-a BXPC-3; settings: for TGI: total growth inhibition
SF-295 = test: Human cancer cell line growth inhibition, CNS SF-295; settings: for TGI: total growth inhibition
KM20L2 = test: Human cancer cell line growth inhibition, colon KM20L2; settings: for TGI: total growth inhibition
P388 = test: Murine lymphocytic leukemia P388 cell line inhibition
Ovcar-3 = test: Human cancer cell line growth inhibition, ovarian Ovcar-3; settings: for TGI: total growth inhibition
DU-145 = test: Human cancer cell line growth inhibition, prostate DU-145; settings: for TGI: total growth inhibition
NCI-H460 = test: Human cancer cell line growth inhibition, lung-NSC NCI-H460; settings: for TGI: total growth inhibition

Row | SMILES | GI50 (BXPC-3; Homo sapiens, BXPC-3) [µg/mL] | TGI (BXPC-3; Pancreas-a BXPC-3) [µg/mL] | TGI (SF-295; CNS SF-295) [µg/mL] | GI50 (SF-295; Homo sapiens, SF-295) [µg/mL] | TGI (KM20L2; Colon KM20L2) [µg/mL] | GI50 (KM20L2; Homo sapiens, KM-20L2) [µg/mL] | ED50 (P388; Murine leukemia P388) [µg/mL] | GI50 (Ovcar-3; Homo sapiens, OVCAR-3) [µg/mL] | TGI (Ovcar-3; Ovarian Ovcar-3) [µg/mL] | GI50 (DU-145; Homo sapiens, DU-145) [µg/mL] | TGI (DU-145; Prostate DU-145) [µg/mL] | GI50 (NCI-H460; Homo sapiens, NCI-H460) [µg/mL] | TGI (NCI-H460; Lung-NSC NCI-H460) [µg/mL] | GI50 (BXPC-3; Pancreas-a BXPC-3) [µg/mL] | GI50 (SF-295; CNS SF-295) [µg/mL] | GI50 (KM20L2; Colon KM20L2) [µg/mL] | GI50 (Ovcar-3; Ovarian Ovcar-3) [µg/mL] | GI50 (DU-145; Prostate DU-145) [µg/mL] | GI50 (NCI-H460; Lung-NSC NCI-H460) [µg/mL] | ED50 (P388) [µg/mL]
1 | O=C1N[C@H]2[C@H](O)[C@H](O)[C@@H](O)[C@H](O)[C@@H]2c2cc3c(c(O)c21)OCO3 [Compound 1a, (+)-Pancratistatin] | 0.028 (≈ 0.0861 µM) | 0.14 (≈ 0.43 µM) | 0.091 (≈ 0.28 µM) | 0.017 (≈ 0.0523 µM) | 0.23 (≈ 0.707 µM) | 0.026 (≈ 0.0799 µM) | 0.032 (≈ 0.0984 µM) | 0.032 (≈ 0.0984 µM) | 0.11 (≈ 0.338 µM) | 0.016 (≈ 0.0492 µM) | 0.1 (≈ 0.307 µM) | 0.048 (≈ 0.148 µM) | 0.43 (≈ 1.32 µM) | – | – | – | – | – | – | –
2 | O=C1N[C@@H]2C(=C[C@H](O)[C@@H](O)[C@H]2O)c2cc3c(c(O)c21)OCO3 [Compound 2, (+)-narciclasine, reference compound] | – | 0.045 (≈ 0.146 µM) | 0.049 (≈ 0.159 µM) | – | 0.012 (≈ 0.0391 µM) | – | 0.0044 (≈ 0.0143 µM) | – | 0.044 (≈ 0.143 µM) | – | 0.036 (≈ 0.117 µM) | – | 0.1 (≈ 0.325 µM) | 0.016 (≈ 0.0521 µM) | 0.012 (≈ 0.0391 µM) | 0.018 (≈ 0.0586 µM) | 0.016 (≈ 0.0521 µM) | 0.0071 (≈ 0.0231 µM) | 0.022 (≈ 0.0716 µM) | –
3 | CC1(C)O[C@@H]2[C@H](O1)[C@@H](O)C=C1c3cc4c(c(O)c3C(=O)N[C@H]12)OCO4 [Compound 3, Narciclasine 3,4-acetonide] | > 10 | >10 | >10 | > 10 | >10 | > 10 | >10 | > 10 | >10 | > 10 | >10 | > 10 | >10 | – | – | – | – | – | – | –
4 | CC(=O)Oc1c2c(cc3c1C(=O)NC1C3=CC(OC(C)=O)C3OC(C)(C)OC13)OCO2 (stereo not shown) [Compound 4, 2,7-Di-acetoxy-narciclasine 3,4-acetonide] | – | >10 | >10 | – | >10 | – | >10 | – | >10 | – | >10 | – | >10 | >10 | >10 | >10 | >10 | >10 | >10 | –
5 | CC(=O)OC1C=C2c3cc4c(c(O)c3C(=O)NC2C2OC(C)(C)OC12)OCO4 (stereo not shown) [Compound 5, 2-Acetoxy-narciclasine 3,4-acetonide] | – | >10 | >10 | – | >10 | – | >10 | – | >10 | – | >10 | – | >10 | >10 | >10 | >10 | >10 | >10 | >10 | –
6 | CC(=O)Oc1c2c(cc3c1C(=O)NC1C4OC(C)(C)OC4C(OC(C)=O)C4OC314)OCO2 (stereo not drawn) [Compound 6, 1,10b-α-epoxy-2,7-diacetoxy-narciclasine 3,4-acetonide] | – | >10 | >10 | – | >10 | – | >10 | – | >10 | – | >10 | – | >10 | >10 | >10 | >10 | >10 | >10 | >10 | –
7 | COC1c2c([nH]c(=O)c3c(O)c4c(cc23)OCO4)C2OC(C)(C)OC2C1O (stereo not shown) [Compound 7, 1-Methoxy-Isonarciclasine 3,4-acetonide] | – | >10 | >10 | – | >10 | – | >10 | – | >10 | – | >10 | – | >10 | >10 | >10 | >10 | >10 | >10 | >10 | –
8 | CC1(C)O[C@@H]2[C@@H](O)[C@@H](O)[C@@H]3c4cc5c(c(O)c4C(=O)N[C@H]3[C@@H]2O1)OCO5 [Compound 8, 1-Isopancratistatin 3,4-acetonide] | 8.8 (≈ 24.1 µM) | >10 | >10 | 7.2 (≈ 19.7 µM) | >10 | 6.9 (≈ 18.9 µM) | 2.6 (≈ 7.12 µM) | 5 (≈ 13.7 µM) | >10 | 3.8 (≈ 10.4 µM) | >10 | > 10 | >10 | – | – | – | – | – | – | –
9 | CC1(C)O[C@@H]2[C@@H](O)[C@@H](O)[C@H]3c4cc5c(c(O)c4C(=O)N[C@H]3[C@@H]2O1)OCO5 [Compound 9, B/C Cis-1-Isopancratistatin 3,4-acetonide] | – | >10 | >10 | – | >10 | – | >10 | – | >10 | – | >10 | – | >10 | >10 | >10 | >10 | >10 | >10 | >10 | –
10 | CC1(C)O[C@@H]2[C@@H](O)[C@H]3OC34c3cc5c(c(O)c3C(=O)N[C@H]4[C@@H]2O1)OCO5 (stereo partly drawn) [Compound 10, 1,10b-α-epoxy-narciclasine 3,4-acetonide] | > 10 | >10 | >10 | > 10 | >10 | > 10 | >10 | > 10 | >10 | > 10 | >10 | > 10 | >10 | – | – | – | – | – | – | –
11 | CC1(C)O[C@H]2[C@@H]3NC(=O)c4c(cc5c(c4O)OCO5)[C@H]3C3OS(=O)(=O)O[C@@H]3[C@H]2O1 (stereo partly shown) [Compound 12, 1-Isopancratistatin 1,2 Cyclic Sulfate-3,4-acetonide] | > 10 | >10 | >10 | > 10 | >10 | > 10 | >10 | > 10 | >10 | > 10 | >10 | > 10 | >10 | – | – | – | – | – | – | –
12 | O=C(OC1C(O)C(O)C(O)C2NC(=O)c3c(cc4c(c3O)OCO4)C21)c1ccccc1 (stereo not shown) [Compound 13, Pancratistatin 1-Benzoate] | – | 0.0053 (≈ 0.0123 µM) | 0.0049 (≈ 0.0114 µM) | – | 0.0034 (≈ 0.00792 µM) | – | – | – | 0.0019 (≈ 0.00442 µM) | – | 0.0026 (≈ 0.00606 µM) | – | – | 0.00094 (≈ 0.00219 µM) | 0.0013 (≈ 0.00303 µM) | <0.001 | <0.001 | – | <0.001 | 0.0017 (≈ 0.00396 µM)
